Experimental data reported in patent US5852190A, “Diazepinoindoles as phosphodiesterase IV inhibitors” (Institut de Recherche Jouveinal SA, priority 1994, dated 1998).

Target: PDE IV
Assay: PDE IV inhibition (partially purified enzyme) compared with rolipram
Type: biochemical
Conditions: enzyme preparation obtained from guinea-pig trachea; same enzyme preparation for rolipram and product
Method: The capacity of the compounds of formula (I) of the invention to inhibit cyclic nucleotide phosphodiesterases is evaluated by measuring their IC50 (concentration of inhibitor required to inhibit enzymatic activity by 50%). In the case of PDEs IV, this value is compared with the IC50 of rolipram, a specific inhibitor of PDE IV, by the ratio of the IC50 of rolipram to the IC50 of the product to be tested, in relation to the same enzyme preparation.
The different classes of phosphodiesterases are obtained in partially purified form on a DEAE-cellulose column from guinea-pig trachea and dog aorta according to a method adapted from that of W. J. Thompson et al., 1979, Advances in Cyclic Nucleotide Research, Vol. 10: 69-92, ed. G. Brooker et al., Raven Press, New York, and of P. J. Silver et al., 1988, Eur. J. Pharmacol. 150: 85-94.
Subsequently, the measurement of the enzymatic activity of the different classes of PDE, and in particular of the PDEs IV, is carried out according to a method which is likewise adapted from that of W. J. Thompson, ibidem.
For the determination of the IC50 the enzymatic activity is measured in the presence of the inhibitor in a range of concentrations from 0.1 to 100 μM.
The following table illustrates the PDE IV-inhibitory activity in comparison with that of rolipram for an enzyme preparation obtained from guinea-pig trachea.

Structure (SMILES) | IC50 rolipram / IC50 example (PDE IV-inhibitory effect compared with rolipram)
COc1cc2c3c(c1)C(c1ccccc1)=N[C@@H](NC(=O)c1ccc4ncccc4c1)C(=O)N3CC2 [Example 6E, (3R) -Quinoline-6-carboxylic acid (9-methoxy-4-oxo-1-phenyl-3,4,6,7-tetrahydro[1,4]diazepino[6,7,1-hi]indol-3-yl)amide] | 1.9
O=C(N[C@@H]1N=C(c2ccccc2)c2cccc3c2N(CC3)C1=O)c1ccc2ncccc2c1 [Example 2T, (3R)-Quinoline-6-carboxylic acid (4-oxo-1-phenyl-3,4,6,7-tetrahydro[1,4]diaze-ino[6,7,1-hi]indol-3-yl)amide] | 2.0
O=C(N[C@@H]1N=C(c2ccccc2)c2cccc3c2N(CC3)C1=O)c1ccccn1 [Example 2P, (3R)-Pyridine-2-carboxylic acid (4-oxo-1-phenyl-3,4,6,7-tetrahydro[1,4]diazepino[6,7,1-hi]indol-3-yl)amide] | 1.5
COc1cc2c3c(c1)C(c1ccccc1)=N[C@@H](NC(=O)c1cccc(Cl)c1)C(=O)N3CC2 [Example 6A, (3R)-3-Chloro-N-(9-methoxy-4-oxo-1-phenyl-3,4,6,7-tetrahydro[1,4]diazepino[6,7,1-hi]indol-3-yl)benzamide] | 2.7
COc1cc2c3c(c1)C(c1ccccc1)=N[C@@H](NC(=O)c1cnc4ccccc4c1)C(=O)N3CC2 [Example 6D, (3R)-Quinoline-3-carboxylic acid (9-methoxy-4-oxo-1-phenyl-3,4,6,7-tetrahydro[1,4]diazepino[6,7,1-hi]indol-3-yl)amide] | 1.9
COc1cc2c3c(c1)C(c1ccccc1)=N[C@@H](NC(=O)c1nnc4cc(C)nn4c1C)C(=O)N3CC2 [Example 6G, (3R)-4.7-Dimethylpyrazolo[5,1-c[]1,2,4]-triazine-3-carboxylic acid (9-methoxy-4-oxo-1-phenyl-3,4,6,7-tetrahydro[1,4]diazepino[6,7,1-hi]indol-3-yl)-amide] | 2.2
COc1cc2c3c(c1)C(c1ccccc1)=N[C@@H](NC(=O)c1ccncc1)C(=O)N3CC2 [Example 6C, (3R)-N-(9-methoxy-4-oxo-1-phenyl-3,4,6,7-tetrahydro[1,4]diaze-ino[6,7,1-hi]indol-3-yl)isonicotinamide] | 1.6
COc1cc2c3c(c1)C(c1ccccc1)=N[C@@H](NC(=O)c1ccc(Cl)cc1)C(=O)N3CC2 [Example 6B, (3R)-4-Chloro-N-(9-methoxv-4-oxo-1-phenyl-3,4,6,7-tetrahydro[1,4]diazepino[6,7,1-hi]indol-3-yl)benzamide] | 1.6
CC(=O)Nc1ccc(C(=O)N[C@@H]2N=C(c3ccccc3)c3cccc4c3N(CC4)C2=O)cc1 [Example 2O, (3R)-4-Acetamido-N-(4-oxo-1-phenyl-3,4,6,7-tetrahydro[1,4]diazepino[6,7,1-hi]indol-3-yl)-benzamide] | 1.9
O=C(N[C@@H]1N=C(c2ccccc2)c2cccc3c2N(CC3)C1=O)c1cnc2ccccc2c1 [Example 2S, (3R)-Quinoline-3-carboxylic acid (4-oxo-1-phenyl-3,4,6,7-tetrahydro[1,4]diazepino[6,7,1-hi]indol-3-yl)amide] | 3.3
COc1cc2c3c(c1)C(c1ccccc1)=N[C@@H](NC(=O)c1cc4ccccc4cn1)C(=O)N3CC2 [Example 6F, (3R)-Isoquinoline-3-carboxylic acid (9-methoxy-4-oxo-1-phenyl-3,4,6,7-tetrahydro[1,4]diazepino-[6,7,1-hi]indol-3-yl)amide] | 1.2
COc1cc(C(=O)N[C@@H]2N=C(c3ccccc3)c3cccc4c3N(CC4)C2=O)cc(OC)c1OC [Example 2M, (3R)-3,4,5-Trimethoxy-N-(4-oxo-1-phenyl-3,4,6,7-tetrahydro[1,4]diazepino[6,7,1-hi]indol-3-yl)-benzamide] | 1.3
Cc1cc2nnc(C(=O)N[C@@H]3N=C(c4ccccc4)c4cccc5c4N(CC5)C3=O)c(C)n2n1 [Example 2Y, (3R)-4,7-Dimethyl-pyrazolo[5,1-c][1,2,4]triazine-3-carboxylic acid (4-oxo-1-phenyl-3,4,6,7-tetrahydro[1,4]diazepino[6,7,1-hi]indol-3-yl)amide] | 1.4
O=C(N[C@@H]1N=C(c2ccccc2)c2cccc3c2N(CC3)C1=O)c1cccc(F)c1 [Example 2B, (3R)-3-Fluoro-N-(4-oxo-1-phenyl-3,4,6,7-tetrahydro[1,4]diazepino[6,7,1-hi]indol-3-yl)-benzamide] | 1.2
O=C(NC1N=C(c2ccccc2)c2cccc3c2N(CC3)C1=O)c1cn2ccccc2n1 (racemic) [Example 1B, (3R,S)-Imidazo[1,2-a]pyridine-2-carboxylic acid N-(4-oxo-1-phenyl-3,4,6,7-tetrahydro1,4]diazepino-[6,7,1-hi]indol-3-yl)amide] | 3.7
COc1ccc(Cl)cc1C(=O)N[C@@H]1N=C(c2ccccc2)c2cccc3c2N(CC3)C1=O [Example 2N, (3R) -2-Methoxy-5-chloro-N-(4-oxo-1-phenyl-3,4,6,7-tetrahydro[1,4]diazepino[6,7,1-hi]indol-3-yl)-benzamide] | 2.5
COc1cc2c3c(c1)C(c1ccccc1)=NC(NC(=O)c1cc4ccccc4cn1)C(=O)N3CC2 [Example 5, (3R,S)-Isoquinoline-3-carboxylic acid (9-methoxy-4-oxo-1-phenyl-3,4,6,7-tetrahydro[1,4]-diazepino(6,7,1-hilindol-3yl)amide] | 1.2
O=C(N[C@@H]1N=C(c2ccccc2)c2cccc3c2N(CC3)C1=O)c1ccc(F)cc1 [Example 2C, (3R)-4-Fluoro-N-(4-oxo-1-phenyl-3,4,6,7-tetrahydro[1,4]diazepino[6,7,1-hi]indol-3-yl) -benzamide] | 1.2

System: phosphodiesterase
Assay: not given
Conditions: nonspecific inhibitor; cited from earlier work

Structure (SMILES) | inhibition of several classes of phosphodiesterases
Cn1c(=O)c2[nH]cnc2n(C)c1=O [Theophylline] | inhibit several classes of enzymes

System: not given
Assay: not given
Conditions: in use; cited from earlier work

Structure (SMILES) | undesirable effects
COc1ccc(C2CNC(=O)C2)cc1OC1CCCC1 (stereo not drawn) [Rolipram] | nausea and vomiting
Cn1c(=O)c2[nH]cnc2n(C)c1=O [Theophylline] | nausea and headaches

Same assay, conditions: methylxanthines such as theophylline; cited from earlier work

Structure (SMILES) | therapeutic index
Cn1c(=O)c2[nH]cnc2n(C)c1=O [Theophylline] | low therapeutic index

System: not listed separately
Assay: subacute oral toxicity in the rat
Type: in vivo
Conditions: 100 mg/kg/day for two weeks, 1% aqueous suspension in methyl cellulose
From the text: The subacute oral toxicity of Example 2V was studied in the rat.

Structure (SMILES) | subacute oral toxicity
O=C(N[C@@H]1N=C(c2ccccc2)c2cccc3c2N(CC3)C1=O)c1cc2ccccc2cn1 [Example 2V, (3R)-Isocuinoline-3-carboxylic acid (4-oxo-1-phenyl-3,4,6,7-tetrahdro[1,4]diazerino[6,7,1-hi]indol-3-yl)amide] | showed no activity which could be linked with a toxic effect

System: inflammatory cells
Assay: not given
Conditions: in vitro, rodents; cited from earlier work

Structure (SMILES) | inhibition of the activity of inflammatory cells
COc1ccc(C2CNC(=O)C2)cc1OC1CCCC1 (stereo not drawn) [Rolipram] | inhibits the activity of inflammatory cells in rodents
